Patent US9006173B2, “Microcystins as agents for treatment of cancer” (priority 2006, dated 2015)
Where two headings read alike, the source gives them in different places. Numbered stars: 1 amine (or outer) side, 2 acyl side, 3 side chain; on linkers, the order of the positions; unused ones are H or OH. Bridge positions count the residues as written; N and C are the ends. Square brackets hold non-standard residues; d marks the D form. Peptide text beside a SMILES is read from it. Adda = CO[C@@H](Cc1ccccc1)[C@@H](C)/C=C(C)/C=C/[C@H](N[*:1])[C@H](C)C(=O)[*:2]; dAsp(3S-Me) = C[C@H](C(=O)[*:3])[C@@H](N[*:1])C(=O)[*:2]; d(γGlu) = O=C(O)[C@@H](CCC(=O)[*:2])N[*:1]; NMeDha = C=C(NC)C(=O)O

Tests used:
[1] = tested on: OATP1B3-transfected HeLa cells
[2] = tested on: total phosphatase activity in OATP1B3-transfected HeLa cells; format: cell-based
[3] = tested on: pIRESneo2 (control plasmid) transfected HeLa cells; test: cells; format: cell-based
[4] = tested on: total phosphatase activity in OATP1B1-transfected HeLa cells; format: cell-based
PP2A = PP2A (Homo sapiens, UniProt P67775); details: cited from earlier work
Sequence of PP2A (P67775 whole entry): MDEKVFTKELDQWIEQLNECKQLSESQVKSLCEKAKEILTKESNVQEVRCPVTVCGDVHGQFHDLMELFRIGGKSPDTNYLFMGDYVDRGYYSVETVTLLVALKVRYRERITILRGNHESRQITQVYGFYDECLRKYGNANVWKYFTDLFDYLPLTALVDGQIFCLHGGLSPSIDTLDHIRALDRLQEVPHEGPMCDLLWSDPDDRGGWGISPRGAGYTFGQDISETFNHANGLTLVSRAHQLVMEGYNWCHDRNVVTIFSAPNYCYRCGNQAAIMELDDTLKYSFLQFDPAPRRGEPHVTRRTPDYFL

[5] = tested on: pIRESneo2 transfected HeLa cells; format: cell-based
[6] = mouse, in vivo; cited from earlier work
[7] = tested on: HeLa cells transfected with pIRESneo2; format: cell-based
[8] = tested on: OATP1B1-expressing HeLa xenografts; set-up: species or system athymic nude mice; details: mouse, in vivo, ip
[9] = set-up: species or system athymic nude mice; details: mouse, in vivo, ip
[10] = tested on: OATP1B1 transfected HeLa cells; format: cell-based
PP1 = PP1 (Homo sapiens, UniProt P62136); details: read-out: Reported Ki PP1; cited from earlier work
Sequence of PP1 (P62136 whole entry): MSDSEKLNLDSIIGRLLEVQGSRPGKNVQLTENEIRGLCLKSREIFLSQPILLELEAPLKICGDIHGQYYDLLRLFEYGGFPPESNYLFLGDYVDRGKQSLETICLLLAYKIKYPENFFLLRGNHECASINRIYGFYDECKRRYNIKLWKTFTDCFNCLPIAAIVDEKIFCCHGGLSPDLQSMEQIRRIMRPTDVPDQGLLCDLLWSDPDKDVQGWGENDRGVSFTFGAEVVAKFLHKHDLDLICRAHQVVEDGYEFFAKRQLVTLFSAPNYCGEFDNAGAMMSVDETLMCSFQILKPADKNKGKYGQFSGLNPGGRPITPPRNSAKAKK

[11] = tested on: OATP1B1-transfected HeLa cells
purified PP2A = target: T1, purified PP2A (Homo sapiens, UniProt P67775); test: biochemical; details: [33P]-MyBP substrate, 10 min pre-incubation, mean±SD; read-out: Enzyme Inhibition PP2A IC50
T1 construct: purchased Upstate Cell Signaling Solutions, NY
T1 sequence (P67775 whole entry): as the sequence (P67775 whole entry) above
T1 sequence (P30153 2-589, further chain): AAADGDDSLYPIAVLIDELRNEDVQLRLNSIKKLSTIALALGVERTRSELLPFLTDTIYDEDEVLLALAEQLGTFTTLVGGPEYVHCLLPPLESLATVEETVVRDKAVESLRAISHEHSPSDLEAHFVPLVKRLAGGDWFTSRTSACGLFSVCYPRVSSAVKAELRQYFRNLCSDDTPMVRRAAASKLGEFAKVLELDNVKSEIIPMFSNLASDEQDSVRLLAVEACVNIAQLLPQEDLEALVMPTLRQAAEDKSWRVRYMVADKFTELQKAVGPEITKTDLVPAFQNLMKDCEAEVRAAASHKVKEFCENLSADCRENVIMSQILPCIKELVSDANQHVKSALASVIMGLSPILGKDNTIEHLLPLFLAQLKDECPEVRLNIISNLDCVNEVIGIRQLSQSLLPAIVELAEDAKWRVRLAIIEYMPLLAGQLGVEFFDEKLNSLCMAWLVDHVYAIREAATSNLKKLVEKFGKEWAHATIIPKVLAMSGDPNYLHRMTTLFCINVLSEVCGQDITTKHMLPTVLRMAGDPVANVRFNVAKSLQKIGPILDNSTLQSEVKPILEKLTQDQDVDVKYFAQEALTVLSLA

OATP1B1 = test: in vitro; details: human
OATP1B3 = test: in vitro; details: human
purified PP1 = purified PP1 (Oryctolagus cuniculus, UniProt P62139); test: biochemical
Sequence of purified PP1 (P62139 whole entry): as the sequence (P62136 whole entry) above

[12] = read-out: Growth Inhibition OATP1B3 IC50
[13] = read-out: Growth Inhibition pIRESneo2 IC50
[14] = read-out: Growth Inhibition OATP1B1 IC50
[15] = read-out: Growth inhibition: toxicity not reached / no cytotoxicity up to stated concentration in control cells

C=C1C(=O)N[C@H](C)C(=O)N[C@@H](CC(C)C)C(=O)N[C@@H](C(=O)O)[C@H](C)C(=O)N[C@@H](Cc2ccccc2)C(=O)N[C@@H](/C=C/C(C)=C/[C@H](C)[C@H](Cc2ccccc2)OC)[C@H](C)C(=O)N[C@@H](C(=O)O)CCC(=O)N1C [Microcystin LF, microcystin LF] (F[Adda][d(γGlu)][NMeDha][dA]L[dAsp(3S-Me)]-OH; lactam N-7)
IC50 [1, 12]: 0.9 ± 0.9 nM | Effect on total phosphatase activity [2]: no discernable effect | IC50 [3, 13]: > 1000 nM

C=C1C(=O)N[C@H](C)C(=O)N[C@@H](CC(C)C)C(=O)N[C@@H](C(=O)O)[C@H](C)C(=O)N[C@@H](CCCNC(=N)N)C(=O)N[C@@H](/C=C/C(C)=C/[C@H](C)[C@H](Cc2ccccc2)OC)[C@H](C)C(=O)N[C@@H](C(=O)O)CCC(=O)N1C [Microcystin LR, microcystin LR] (R[Adda][d(γGlu)][NMeDha][dA]L[dAsp(3S-Me)]-OH; lactam N-7)
Decrease of total phosphatase activity [4]: approximately 30% | IC50 [1, 12]: 39 nM | IC50 ([1]; read-out: Growth inhibition IC50 in presence of BSP, OATP1B3): ~5000 nM | Ki (PP2A; read-out: Reported Ki PP2A): 0.01 to 2 nM | Cell and nuclear morphology changes [5]: no changes in cellular morphology | Share of total dose accumulating in the liver [6]: 70% | Clonogenic assay toxicity in vector alone cells [7]: no toxicity | Average tumor volume, % of control [8]: 49 % of control | Body weight day 0, daily cohort [9]: 22.8±2.7 grams | Body weight day 0, every other day cohort [9]: 21.6±0.8 grams | Body weight day 18, daily cohort [9]: 19.0±1.2 grams | Body weight day 18, every other day cohort [9]: 22.3±2.4 grams | Cell and nuclear morphology changes [10]: membrane blebbing | Ki (PP1): 0.06 to 6 nM | Growth inhibition activity after 1 hour exposure [11]: less active | IC50 [11, 14]: 5 nM | IC50 ([11]; read-out: Growth inhibition IC50 in presence of BSP, OATP1B1): ~5000 nM | IC50 [3, 13]: > 10000 nM | IC50 [3, 15]: > 10000 nM

C=C1C(=O)N[C@H](C)C(=O)N[C@@H](CC(C)C)C(=O)N[C@@H](C(=O)O)[C@H](C)C(=O)N[C@@H](Cc2c[nH]c3ccccc23)C(=O)N[C@@H](/C=C/C(C)=C/[C@H](C)[C@H](Cc2ccccc2)OC)[C@H](C)C(=O)N[C@@H](C(=O)O)CCC(=O)N1C [Microcystin LW, microcystin LW] (W[Adda][d(γGlu)][NMeDha][dA]L[dAsp(3S-Me)]-OH; lactam N-7)
IC50 [1, 12]: 0.5 ± 0.4 nM | Effect on total phosphatase activity [2]: no discernable effect | IC50 [3, 13]: > 1000 nM

C=C1C(=O)N[C@H](C)C(=O)N[C@@H](CCCNC(=N)N)C(=O)N[C@@H](C(=O)O)[C@H](C)C(=O)N[C@@H](CCCNC(=N)N)C(=O)N[C@@H](/C=C/C(C)=C/[C@H](C)[C@H](Cc2ccccc2)OC)[C@H](C)C(=O)N[C@@H](C(=O)O)CCC(=O)N1C [Microcystin RR, microcystin RR] (R[Adda][d(γGlu)][NMeDha][dA]R[dAsp(3S-Me)]-OH; lactam N-7)
IC50 ([1]; read-out: Growth inhibition IC50 OATP1B3): 580 ± 400 nM | Decrease of total phosphatase activity [2]: 90% | IC50 ([11]; read-out: Growth inhibition IC50 OATP1B1): 3800 ± 2300 nM | IC50 [3, 13]: > 10000 nM | IC50 [3, 15]: > 10000 nM

C=C1C(=O)N[C@H](C)C(=O)N[C@@H](Cc2ccc(O)cc2)C(=O)N[C@@H](C(=O)O)[C@H](C)C(=O)N[C@@H](CCCNC(=N)N)C(=O)N[C@@H](/C=C/C(C)=C/[C@H](C)[C@H](Cc2ccccc2)OC)[C@H](C)C(=O)N[C@@H](C(=O)O)CCC(=O)N1C [Microcystin YR, microcystin YR] (R[Adda][d(γGlu)][NMeDha][dA]Y[dAsp(3S-Me)]-OH; lactam N-7)
IC50 [1, 12]: 45 ± 30 nM | IC50 [11, 14]: 90 ± 20 nM | IC50 [3, 13]: > 1000 nM

C=C1[C@@H](O)[C@@H]2O[C@]3(CC[C@H](/C=C/[C@@H](C)[C@@H]4CC(C)=C[C@@]5(O[C@H](C[C@@](C)(O)C(=O)O)CC[C@H]5O)O4)O3)CC[C@H]2O[C@@H]1[C@@H](O)C[C@H](C)[C@H]1O[C@@]2(CCCCO2)CC[C@H]1C [Okadaic acid]
IC50 (purified PP2A): 0.4 ± 0.18 nM | IC50 (OATP1B1): 2.2 ± 0.6 nM | IC50 (PP2A; literature (18), read-out: Reported IC50 PP2A): 15 to 70 nM | IC50 (OATP1B3): 3 ± 1.2 nM | IC50 (purified PP1): 90 ± 17 nM | IC50 ([3]; Homo sapiens, HeLa, 72 h exposure, SRB dye assay, mean±SD, read-out: Growth Inhibition pIRESneo2 IC50): 7.8 ± 1.5 nM
